Target: T1, Met receptor (EGFR/Met chimeric cells, EMR) (Homo sapiens, UniProt P08581)
T1 construct: expressed in transfected cells; the other entry of the earlier key: EGFR (P00533, Epidermal growth factor receptor)
Test: Met Autophosphorylation Assay
Assay type: biochemical
Conditions: protocol P.130
Procedure, shortened: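 Met phosphorylation was measured by capture ELISA. Lysates (90 μg/100 μl, HNTG plus 1 mM PMSF) from transiently transfected EGFR/Met chimera (EMR) cells were bound for 60 min at room temperature to wells holding rabbit anti-Met (C-28) on goat anti-rabbit coat. Phosphotyrosine was the read-out.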

T1 sequence (P08581 with tags, fused parts or gaps): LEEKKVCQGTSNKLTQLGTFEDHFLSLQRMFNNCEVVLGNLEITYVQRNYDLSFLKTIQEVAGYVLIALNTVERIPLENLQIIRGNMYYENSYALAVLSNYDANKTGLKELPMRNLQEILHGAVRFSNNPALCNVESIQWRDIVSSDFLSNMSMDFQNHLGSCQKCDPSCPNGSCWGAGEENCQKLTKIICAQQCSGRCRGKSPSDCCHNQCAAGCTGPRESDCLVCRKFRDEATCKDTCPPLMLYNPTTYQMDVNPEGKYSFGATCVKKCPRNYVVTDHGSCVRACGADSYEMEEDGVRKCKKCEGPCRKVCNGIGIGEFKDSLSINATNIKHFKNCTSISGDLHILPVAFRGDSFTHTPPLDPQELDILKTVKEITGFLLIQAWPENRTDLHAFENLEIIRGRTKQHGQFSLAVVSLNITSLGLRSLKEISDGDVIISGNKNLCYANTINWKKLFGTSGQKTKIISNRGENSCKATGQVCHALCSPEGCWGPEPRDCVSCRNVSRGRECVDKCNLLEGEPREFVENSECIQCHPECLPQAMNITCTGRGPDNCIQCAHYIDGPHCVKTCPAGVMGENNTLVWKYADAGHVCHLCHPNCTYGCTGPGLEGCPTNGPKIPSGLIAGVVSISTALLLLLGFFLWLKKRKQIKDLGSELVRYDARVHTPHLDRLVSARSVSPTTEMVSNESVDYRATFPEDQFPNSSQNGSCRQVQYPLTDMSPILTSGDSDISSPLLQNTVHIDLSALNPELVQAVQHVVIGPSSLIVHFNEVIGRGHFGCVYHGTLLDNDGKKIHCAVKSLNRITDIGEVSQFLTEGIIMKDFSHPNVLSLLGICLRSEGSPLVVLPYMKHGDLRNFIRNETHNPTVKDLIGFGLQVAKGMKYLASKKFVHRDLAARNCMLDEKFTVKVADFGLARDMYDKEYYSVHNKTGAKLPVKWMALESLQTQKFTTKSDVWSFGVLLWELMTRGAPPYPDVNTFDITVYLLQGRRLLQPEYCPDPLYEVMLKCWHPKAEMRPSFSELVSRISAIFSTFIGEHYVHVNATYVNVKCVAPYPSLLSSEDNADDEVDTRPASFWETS

In the case of `COc1ccccc1C=C1C(=O)Nc2ccc(S(=O)(=O)Nc3ccc(C(F)(F)F)cc3)cc21` [10738/E09], the “Met Kinase % Inhibition (P.130)” value is reported as 18.0%.
With `CC(C)c1ccc(C=C2C(=O)Nc3ccc(S(=O)(=O)Nc4ccc(C(F)(F)F)cc4)cc32)cc1` [10738/E10] the “Met Kinase % Inhibition (P.130)” value was 5.8%.
In the case of `CCCOc1ccc(C=C2C(=O)Nc3ccc(S(=O)(=O)Nc4ccc(C(F)(F)F)cc4)cc32)cc1` [10738/E11], the “Met Kinase % Inhibition (P.130)” value is reported as 11.8%.
In the case of `Cc1ccc(Oc2cccc(C=C3C(=O)Nc4ccc(S(=O)(=O)N5CCOCC5)cc43)c2)cc1` [10738/F02], the “Met Kinase % Inhibition (P.130)” value is reported as 66.1%.
`O=C1Nc2ccc(S(=O)(=O)N3CCOCC3)cc2C1=Cc1cccc(Oc2ccc(Cl)c(Cl)c2)c1` [10738/F03] was tested, and the “Met Kinase % Inhibition (P.130)” value was 20.0%.
For `COc1ccc(C=C2C(=O)Nc3ccc(S(=O)(=O)N4CCOCC4)cc32)cc1O` [10738/F04], the “Met Kinase % Inhibition (P.130)” value was 61.4%.
In the case of `O=C1Nc2ccc(S(=O)(=O)N3CCOCC3)cc2C1=Cc1cc(O)ccc1[N+](=O)[O-]` [10738/F05], the “Met Kinase % Inhibition (P.130)” value is reported as 33.5%.
With `O=C1Nc2ccc(S(=O)(=O)N3CCOCC3)cc2C1=Cc1cccc(O)c1O` [10738/F06] the “Met Kinase % Inhibition (P.130)” value was 86.7%.
In the case of `O=C1Nc2ccc(S(=O)(=O)N3CCOCC3)cc2C1=Cc1cc(O)cc(O)c1` [10738/F07], the “Met Kinase % Inhibition (P.130)” value is reported as 52.3%.
In the case of `O=C1Nc2ccc(S(=O)(=O)N3CCOCC3)cc2C1=Cc1ccc(Cl)c(Cl)c1` [10738/F08], the “Met Kinase % Inhibition (P.130)” value is reported as 60.5%.
For `COc1ccccc1C=C1C(=O)Nc2ccc(S(=O)(=O)N3CCOCC3)cc21` [10738/F09], the “Met Kinase % Inhibition (P.130)” value was 28.9%.
With `CC(C)c1ccc(C=C2C(=O)Nc3ccc(S(=O)(=O)N4CCOCC4)cc32)cc1` [10738/F10] the “Met Kinase % Inhibition (P.130)” value was 47.9%.
With `CCCOc1ccc(C=C2C(=O)Nc3ccc(S(=O)(=O)N4CCOCC4)cc32)cc1` [10738/F11] the “Met Kinase % Inhibition (P.130)” value was 52.6%.
With `Cc1ccc(Oc2cccc(C=C3C(=O)Nc4ccc(CCCl)cc43)c2)cc1` [10738/G02] the “Met Kinase % Inhibition (P.130)” value was 16.9%.
For `O=C1Nc2ccc(CCCl)cc2C1=Cc1cccc(Oc2ccc(Cl)c(Cl)c2)c1` [10738/G03], the “Met Kinase % Inhibition (P.130)” value was 32.8%.
`COc1ccc(C=C2C(=O)Nc3ccc(CCCl)cc32)cc1O` [10738/G04] was tested, and the “Met Kinase % Inhibition (P.130)” value was 42.6%.
`O=C1Nc2ccc(CCCl)cc2C1=Cc1cc(O)ccc1[N+](=O)[O-]` [10738/G05] was tested, and the “Met Kinase % Inhibition (P.130)” value was 27.3%.
`O=C1Nc2ccc(CCCl)cc2C1=Cc1cccc(O)c1O` [10738/G06] was tested, and the “Met Kinase % Inhibition (P.130)” value was 86.5%.
With `O=C1Nc2ccc(CCCl)cc2C1=Cc1cc(O)cc(O)c1` [10738/G07] the “Met Kinase % Inhibition (P.130)” value was 40.4%.
`O=C1Nc2ccc(CCCl)cc2C1=Cc1ccc(Cl)c(Cl)c1` [10738/G08] was tested, and the “Met Kinase % Inhibition (P.130)” value was 36.8%.
With `COc1ccccc1C=C1C(=O)Nc2ccc(CCCl)cc21` [10738/G09] the “Met Kinase % Inhibition (P.130)” value was 16.9%.
In the case of `CC(C)c1ccc(C=C2C(=O)Nc3ccc(CCCl)cc32)cc1` [10738/G10], the “Met Kinase % Inhibition (P.130)” value is reported as 12.5%.
For `CCCOc1ccc(C=C2C(=O)Nc3ccc(CCCl)cc32)cc1` [10738/G11], the “Met Kinase % Inhibition (P.130)” value was 22.2%.
`Cc1ccc(Oc2cccc(C=C3C(=O)Nc4c(Br)cc(Br)c(C)c43)c2)cc1` [10738/H02] was tested, and the “Met Kinase % Inhibition (P.130)” value was 35.3%.
With `Cc1c(Br)cc(Br)c2c1C(=Cc1cccc(Oc3ccc(Cl)c(Cl)c3)c1)C(=O)N2` [10738/H03] the “Met Kinase % Inhibition (P.130)” value was 29.5%.
In the case of `COc1ccc(C=C2C(=O)Nc3c(Br)cc(Br)c(C)c32)cc1O` [10738/H04], the “Met Kinase % Inhibition (P.130)” value is reported as 72.9%.
`Cc1c(Br)cc(Br)c2c1C(=Cc1cc(O)ccc1[N+](=O)[O-])C(=O)N2` [10738/H05] was tested, and the “Met Kinase % Inhibition (P.130)” value was 73.6%.
For `Cc1c(Br)cc(Br)c2c1C(=Cc1cccc(O)c1O)C(=O)N2` [10738/H06], the “Met Kinase % Inhibition (P.130)” value was 93.8%.

— patent publication US20020026053A1, “Novel 3-(substituted) -2- indolinones compounds and use thereof as inhibitors of protein kinase activity” (priority 1997, published 2002)
